# Assay results as given in patent US20260223850A1, “SUBSTITUTED PYRROLIDONE COMPOUND, PREPARATION METHOD THEREFOR, COMPOSITION AND APPLICATION THEREOF” (QINGDAO KINGAGROOT CHEMICAL COMPOUND CO., LTD., priority 2023, published 2026).
# Where two headings read alike, the source gives them in different places.
# Legend:
# Format in all cases: in vivo
# weeds [1] = test: Activity assay of compositions, post-emergence spray treatment of stems and leaves (F); conditions: F
# Procedure: (§1) The required active ingredient B was purchased from a reagent company or a technical material manufacturer or synthesized by a conventional method. The technical materials were all dissolved with acetone solvents and diluted with aqueous solution of 0.1% Tween® 80 emulsifier, which should be used immediately after dilution.
# Weeds were cultivated by the pot culture method. […] Weed seeds with plump and uniform grains were selected, soaked in lukewarm water at 25° C. for 6 hours, and accelerated to germinate in a 28° C. biochemical incubator (in darkness). The weed seeds that had just germinated were evenly placed on the surface of the soil and then covered with 0.5-1 cm soil according to the sizes of seeds.
# The weeds were cultured in a controllable sunlight greenhouse at 20-30° C., in natural light and with relative humidity of 57%-72%.
# Each treatment was repeated 4 times. Three pots with 20 weed seeds sowed per pot were treated each time.
# The drug was applied once in total in the experiment. When at 1.5-2 leaf stage, the weeds were thinned out to maintain 10 strains per pot. Thirty strains were kept in each treatment and then continued to be cultured until the 3-4 leaf stage for further treatment.
# The well-cultured test materials were evenly placed on a 0.5 m^2 platform and foliage-sprayed by the 3WP-2000-type walking spray tower at a dosage of […] and a spray pressure of 0.3 MPa. After all the drug solution was sprayed, the air valve was closed. And 30 seconds later, the door of the spray tower was opened, and the nutritional bowl was taken out. Next, the air valve was opened, and the spray tube was cleaned by spraying 50 mL of water. The test materials were transferred to and routinely cultured in a greenhouse after the treatment.
# (§2) A method for investigating absolute numbers was employed. The whole seedlings of the survival weeds were cut along the soil surface with a blade, and the fresh weight of the weeds was weighed by an analytical balance. For dead weeds, the fresh weight thereof was considered zero.
# (§3) The investigation was performed 21 days after the treatment for once in total.
# (§4) The theoretical fresh weight inhibition rate of a mixed combination of each treatment was calculated by the Gowing method (E0═X+Y−X*Y/100), then compared with the measured inhibition rate (E) to evaluate the type of the combined action of the combination of the two on weeds. The combined action was a synergistic effect when E−E0 >10%; an antagonistic effect when E−E0<−10%; an additional effect when −10%≤E−E0≤10%. An optimal ratio was determined according to factors such as actual control effects, characteristics of herbicides, balance of the formulation, etc. In the formula, X represents the fresh weight inhibition rate of the active ingredient A in a dosage of P; Y represents the fresh weight inhibition rate of the active ingredient B in a dosage of Q. The statistical results are shown in Table 6.
# weeds [2] = test: Activity assay of compositions, soil sealing treatment (S); conditions: for pest or weed control at 7.5 g/ha / pest or weed control at 15 g/ha / pest or weed control at 75 g/ha / pest or weed control at 150 g/ha / pest or weed control at 30 g/ha / pest or weed control at 60 g/ha / pest or weed control at 300 g/ha: soil, read-out: Control effect of B applied alone in a corresponding dose (%); for pest or weed control at 300 g/ha: B 300 g a.i./ha
# Text: as §1
# The test soil was quantitatively filled to ¾ of a pot, and then watered from the bottom of the pot to completely wet the soil to saturation. The seeds of the test weeds were accelerated to Just germinate, and then evenly and quantitatively broadcasted on the soil surface, covered with 0.5-1 cm soil according to the sizes of the seeds, and ready for use 72 hours after broadcasting.
# Each treatment was repeated 4 times. Four pots were treated each time with 20 weed seeds per pot.
# The seeds were planted in a 20 cm*30 cm square box. Water was added to 2-3 cm deep after sowing, then injected with the drug agent using a syringe, stirred evenly, and left to stand for 2 days to dry naturally. The soil was kept moist afterwards.
# as §2, §3
# as §4, with “etc.” for “etc. In the formula, X represents the fresh weight inhibition rate of the active ingredient A in a dosage of P; Y represents the fresh weight inhibition rate of the active ingredient B in a dosage of Q. The statistical results are shown in Table 6.”
# Mythimna separata = test: Insecticidal activity assay, spraying method; conditions: 500 ppm, 3rd instar, spray, 48 h after drug application
# Procedure: Spraying method: the technical material was weighed and dissolved with acetone, and the drug liquid was diluted with distilled water to different concentrations. The 2nd instar Spodoptera frugiperda test insects or the 3rd instar Mythimna separata test insects reared indoors with consistent physiological conditions were selected. Ten test insects were picked into each petri dish. Two 2 cm-long corn leaves were placed in the petri dish and sprayed using a spray tower. Each dosage was repeated 3 times, with acetone of the corresponding concentration as a control. After drug application, the insects were transferred to and reared in a condition where the temperature was 25° C. and the humidity was 60%. The results were investigated 48 h after drug application and the death number per treatment was collected, respectively. The mortality was calculated in accordance with the following equation: Mortality (%)=(Number of dead insects/Number of test insects)×100.
# [3] = Alisma plantago-aquatica, B 30 g a.i./ha
# [4] = Alisma plantago-aquatica, B 60 g a.i./ha
# [5] = Paspalum distichum, S, B 7.5 g a.i./ha
# [6] = Paspalum distichum, S, B 15 g a.i./ha
# [7] = Rotala indica, S, B 7.5 g a.i./ha
# [8] = Rotala indica, S, B 15 g a.i./ha
# [9] = Rotala indica, S, B 150 g a.i./ha
# [10] = Rotala indica, S, B 30 g a.i./ha
# [11] = Rotala indica, S, B 60 g a.i./ha
# [12] = Paspalum distichum, S, B 30 g a.i./ha
# [13] = Paspalum distichum, S, B 60 g a.i./ha
# [14] = Alisma plantago-aquatica, S, B 3.75 g a.i./ha
# [15] = Alisma plantago-aquatica, S, B 7.5 g a.i./ha
compound,measurement,setting,value
C[C@@H](Oc1nc(F)c(Cl)c(N)c1Cl)C(=O)OCC1CCCO1 (stereo partly shown),Control effect of B applied alone in a corresponding dose (%),weeds [1]; [3],38.7%
same,Control effect of B applied alone in a corresponding dose (%),weeds [1]; [4],45.6%
"Cc1ccccc1CO[C@@H]1C[C@@]2(C(C)C)CC[C@]1(C)O2 (racemic) [Cinmethylin, cinmethylin]",pest or weed control at 7.5 g/ha,weeds [2]; [5],34.8%
same,pest or weed control at 15 g/ha,weeds [2]; [6],47.6%
"CC(C)N1C(=O)c2ccccc2NS1(=O)=O [Bentazone, bentazone, reference compound]",Control effect of B applied alone in a corresponding dose (%),"weeds [1]; Paspalum distichum, B 375 g a.i./ha",29.2%
same,Control effect of B applied alone in a corresponding dose (%),"weeds [1]; Paspalum distichum, B 750 g a.i./ha",36.7%
"CCOc1cc(Oc2ccc(C(F)(F)F)cc2Cl)ccc1[N+](=O)[O-] [Oxyfluorfen, oxyfluorfen]",pest or weed control at 7.5 g/ha,weeds [2]; [7],51%
same,pest or weed control at 15 g/ha,weeds [2]; [8],69.3%
"CCCOCCN(C(=O)CCl)c1c(CC)cccc1CC [Pretilachlor, pretilachlor]",pest or weed control at 75 g/ha,"weeds [2]; Rotala indica, S, B 75 g a.i./ha",54.2%
same,pest or weed control at 150 g/ha,weeds [2]; [9],63.9%
"CC(C)Oc1cc(-n2nc(C(C)(C)C)oc2=O)c(Cl)cc1Cl [Oxadiazon, oxadiazon]",pest or weed control at 30 g/ha,weeds [2]; [10],50.5%
same,pest or weed control at 60 g/ha,weeds [2]; [11],68.7%
"CC1(C)CON(Cc2ccccc2Cl)C1=O [Clomazone, clomazone]",pest or weed control at 30 g/ha,weeds [2]; [12],44.3%
same,pest or weed control at 60 g/ha,weeds [2]; [13],51.5%
"CN(C(=O)COc1nc2ccccc2s1)c1ccccc1 [Mefenacet, mefenacet]",pest or weed control at 150 g/ha,weeds [2]; [9],38.4%
same,pest or weed control at 300 g/ha,"weeds [2]; Rotala indica, S",58.3%
"CCOCN(C(=O)CCl)c1c(C)cccc1CC [Acetochlor, acetochlor]",pest or weed control at 150 g/ha,weeds [2]; [9],46.2%
same,pest or weed control at 300 g/ha,"weeds [2]; Rotala indica, S",66.5%
oxadiargyl,Control effect of B applied alone in a corresponding dose (%),weeds [2]; [7],47.2%
same,Control effect of B applied alone in a corresponding dose (%),weeds [2]; [8],58.6%
"COP(=S)(OC)SCC(=O)N(c1ccc(Cl)cc1)C(C)(C)C [Anilofos, anilofos]",pest or weed control at 75 g/ha,weeds [2]; Rotala indica,22.4%
same,pest or weed control at 150 g/ha,weeds [2]; Rotala indica,31.8%
"CC1=C(c2ccccc2)C(=O)N(C(C)(C)c2cc(Cl)cc(Cl)c2)CO1 [Oxaziclomefone, oxaziclomefone]",pest or weed control at 7.5 g/ha,weeds [2]; [5],36.9%
same,pest or weed control at 15 g/ha,weeds [2]; [6],48.5%
COC(=O)[C@@H](C)O/N=C/c1cc(-n2c(=O)cc(C(F)(F)F)n(C)c2=O)c(F)cc1Cl,pest or weed control at 7.5 g/ha,weeds [2]; [7],47.9%
same,pest or weed control at 15 g/ha,weeds [2]; [8],56.6%
"CS(=O)(=O)c1ccc(C(=O)C2=C(Sc3ccccc3)C3CCC(C3)C2=O)c(Cl)c1 (stereo not shown) [Benzobicyclon, benzobicyclon]",Control effect of B applied alone in a corresponding dose (%),weeds [2]; [8],32.8%
same,Control effect of B applied alone in a corresponding dose (%),weeds [2]; [10],49.6%
"CCC(=O)Nc1ccc(Cl)c(Cl)c1 [Propanil, propanil, reference compound]",Control effect of B applied alone in a corresponding dose (%),"weeds [1]; Paspalum distichum, B 300 g a.i./ha",48.3%
same,Control effect of B applied alone in a corresponding dose (%),"weeds [1]; Paspalum distichum, B 600 g a.i./ha",56.1%
CC1(C)CON(Cc2ccc(Cl)cc2Br)C1=O,pest or weed control at 30 g/ha,weeds [2]; [12],37.8%
same,pest or weed control at 60 g/ha,weeds [2]; [13],51.3%
"CS(=O)(=O)c1ccc(C(=O)C2C(=O)CCCC2=O)c(Cl)c1COCC1CCCO1 (stereo not shown) [Tefuryltrione, tefuryltrione]",Control effect of B applied alone in a corresponding dose (%),weeds [2]; [8],30.8%
same,Control effect of B applied alone in a corresponding dose (%),weeds [2]; [10],45.2%
"C#CCN(C)c1c(C#N)cnn1-c1nn2c(c1Cl)CCCC2 [Pyraclonil, pyraclonil]",Control effect of B applied alone in a corresponding dose (%),weeds [2]; [10],48.2%
same,Control effect of B applied alone in a corresponding dose (%),weeds [2]; [11],63.4%
"CCCCOCN(C(=O)CCl)c1c(CC)cccc1CC [Butachlor, butachlor]",pest or weed control at 150 g/ha,weeds [2]; [9],42.4%
same,pest or weed control at 300 g/ha,"weeds [2]; Rotala indica, S",58.6%
"Cc1nn(C)cc1C(=O)Oc1c(C(=O)c2ccc(C(F)(F)F)cc2S(C)(=O)=O)c(C)nn1C [Bipyrazone, bipyrazone]",Control effect of B applied alone in a corresponding dose (%),weeds [2]; [8],24.5%
same,Control effect of B applied alone in a corresponding dose (%),weeds [2]; [10],38.8%
"COC(=O)c1nc(-c2ccc(Cl)c(OC)c2F)cc(N)c1Cl [Halauxifen-methyl, halauxifen-methyl]",Control effect of B applied alone in a corresponding dose (%),weeds [2]; [14],58.4%
same,Control effect of B applied alone in a corresponding dose (%),weeds [2]; [15],68.9%
"Nc1c(Cl)c(F)nc(OCC(=O)O)c1Cl [Fluroxypyr, fluroxypyr, reference compound]",Control effect of B applied alone in a corresponding dose (%),weeds [1]; [3],52.5%
same,Control effect of B applied alone in a corresponding dose (%),weeds [1]; [4],65.8%
CC(C)C12CCC(C)(O1)C(OCc1c(F)cccc1Br)C2 (stereo not shown),pest or weed control at 7.5 g/ha,weeds [2]; [5],46.3%
same,pest or weed control at 15 g/ha,weeds [2]; [6],57.4%
"CC1(C)CON(Cc2ccc(Cl)cc2Cl)C1=O [Bixlozone, bixlozone]",Control effect of B applied alone in a corresponding dose (%),weeds [2]; [12],41.7%
same,Control effect of B applied alone in a corresponding dose (%),weeds [2]; [13],52.8%
"CCNc1nc(NCC)nc(SC)n1 [Simetryn, simetryn]",pest or weed control at 75 g/ha,weeds [2]; Paspalum distichum,45.5%
same,pest or weed control at 150 g/ha,weeds [2]; Paspalum distichum,54.8%
Cc1cc(C)cc([C@H]2CN(C)C(=O)[C@@H]2C(=O)Nc2cnn(C)c2-c2ccc(Cl)cc2)c1 [281′],Mythimna separata/% (mortality),Mythimna separata,60%
"COc1c(Cl)ccc(-c2nc(C(=O)OCc3ccccc3)c(Cl)c(N)c2F)c1F [Florpyrauxifen-benzyl, florpyrauxifen-benzyl]",Control effect of B applied alone in a corresponding dose (%),weeds [2]; [14],62.8%
same,Control effect of B applied alone in a corresponding dose (%),weeds [2]; [15],74.6%
CCc1ccc(-n2cnc(C(F)(F)F)n2)nc1Oc1cccc(C(F)(F)F)c1,pest or weed control at 7.5 g/ha,weeds [2]; [7],47.1%
same,pest or weed control at 15 g/ha,weeds [2]; [8],63.6%
COCCOC(=O)c1nc(-c2ccc(C(F)(F)F)c(OC)c2F)nc(N)c1OC,Control effect of B applied alone in a corresponding dose (%),"weeds [1]; Alisma plantago-aquatica, B 3.75 g a.i./ha",43.5%
same,Control effect of B applied alone in a corresponding dose (%),"weeds [1]; Alisma plantago-aquatica, B 7.5 g a.i./ha",57.2%
"CC(C)=C1OC(=O)N(c2cc(OC3CCCC3)c(Cl)cc2F)C1=O [Pentoxazone, pentoxazone]",pest or weed control at 30 g/ha,weeds [2]; Rotala indica,55.3%
same,pest or weed control at 60 g/ha,weeds [2]; Rotala indica,62.7%
CCC[S@@+]([O-])c1c(C(F)(F)F)ccc(C(=O)Nc2nnc(C)o2)c1F,pest or weed control at 15 g/ha,weeds [2]; [8],35.8%
same,pest or weed control at 30 g/ha,weeds [2]; [10],46.6%
